Assay results reported in patent publication US20100036122A1, “CLEAVAGE AGENT SELECTIVELY ACTING ON SOLUBLE ASSEMBLY OF AMYLOIDOGENIC PEPTIDE OR PROTEIN” (priority 2006, published 2010).
Entries after “also recorded” stand apart in the source; their conditions may differ.

Experiments:
Format in all cases: biochemical
[1] = molecular target: Aβ40 (Homo sapiens, UniProt P05067); assay: Cleavage of oligomers of Aβ40 by cleavage agent (MALDI-TOF MS, cleavage yield); conditions: for cleavage of Aβ40 (MALDI-TOF mass spectrum): pH 7.50, 36 hours
Sequence of Aβ40 (P05067 672-711 limits assumed): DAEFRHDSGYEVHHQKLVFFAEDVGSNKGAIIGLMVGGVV
Protocol: (§1) The activity of each cleavage agent was tested at 37° C. and pH 7.50 (0.050 M phosphoric acid) in Eppendorf tubes unless indicated otherwise in the Examples.
(§2) To generate the monomeric form of Aβ40 or Aβ42 in the early reaction stage, Aβ40 or Aβ42 was treated with NaOH prior to exposure to the pH 7.50 reaction medium (Fezoui, Y.; Hartley, D. M.; Harper, J. D.; Khurana, R.; Walsh, D. M.; Condron, M. M.; Selkoe, D. J.; Lansbury, P. T. Jr.; Fink, A. L.; Teplow, D. B. Amyloid 2000, 7, 166-178). The results for measurement of the fraction of Aβ40 (◯) or Aβ42 ([…]) (initial concentration: 4.0 μM) passing the membrane with cut-off MW of 10000 after incubation at pH 7.50 and 37° C. for various periods of self-assembly are illustrated in FIG. 5. According to the results, most (>80%) of Aβ42 (MW 4514) passes the filter immediately after exposure to the pH 7.50 medium. During the filtration through the membrane which takes about 10 minutes, large oligomers which cannot pass the membrane may have been generated. Therefore, it appears that most of the Aβ42 passed the membrane.
(§3) Unless specifically described in the Examples, cleavage reaction was initiated by adding Aβ40 or Aβ42 to the solution containing the cleavage agent, and the cleavage yield was estimated through the following process.
(§4) A product solution formed by the cleavage reaction was passed through the membrane with a cut-off MW of 10000 to remove aggregates of Aβ40 or Aβ42. Thereafter, the cleavage products were separated by HPLC, and the total amount of the cleavage products was estimated. The cleavage product was degraded to amino acids by alkaline hydrolysis, and then, the total amount of amino acids was estimated with fluorescamine to determine the total amount of the cleavage product. The cleavage yield was calculated by comparing the amount of the cleavage product with the initially added amount of the Aβ40 or Aβ42.
(§5) The cleavage yield measured by incubating Aβ40 or Aβ42 (4.0 μM) with various concentrations of cleavage agent A at pH 7.50 and 37° C. for 36 hours is illustrated in FIG. 8. The cleavage yields of Aβ40 or Aβ42 in the Examples are the mean value measured by using 4˜6 different reaction mixtures. The relative standard deviation (% RSD) of each cleavage yield is 5-15%.

[2] = test system: horse heart myoglobin, bovine serum γ-globulin, bovine serum albumin, human serum albumin, egg white lysozyme, egg white ovalbumin, bovine pancreas insulin; assay: Reaction with control proteins (not amyloidogenic); conditions: each protein 2-7 μM, cleavage agent 5.0 μM, pH 7.50, 37° C., 36 hours
[3] = test system: scrambled Aβ42; assay: Reaction with control peptides: scrambled Aβ42; conditions: scrambled Aβ42 4.0 μM, cleavage agent 3.0 μM, pH 7.50, 37° C., 36 hours
Protocol: The following control experiment was performed on cleavage agent A. The peptides or proteins used in the control experiment are not amyloidogenic. […] Two kinds of scrambled Aβ42, having the same 42 amino acids as Aβ42 in a scrambled sequence ([…], […]) (4.0 μM), were not cleaved by incubation with cleavage agent A (3.0 μM) at pH 7.50 and 37° C. for 36 hours.

[4] = molecular target: Aβ42 (Homo sapiens, UniProt P05067); assay: Cleavage of oligomers of Aβ42 by cleavage agent (MALDI-TOF MS, cleavage yield); conditions: for cleavage of Aβ42 (MALDI-TOF mass spectrum): cleavage agent 0.50-1.0 μM, pH 7.50, 36 hours
Sequence of Aβ42 (P05067 672-713 limits assumed): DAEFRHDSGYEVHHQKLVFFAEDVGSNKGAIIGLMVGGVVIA
Protocol: as §1, §2, §3, §4, §5

[5] = molecular target: T1, α-synuclein (Syn) (Homo sapiens, UniProt P37840, M5L); assay: Cleavage of oligomer of α-synuclein by cleavage agent (cleavage yield); conditions: Syn 70 μM, pH 7.50, 37° C.; for cleavage yields of Syn: various concentrations of cleavage agent, 3 days
T1 construct: α-synuclein (Syn) is a protein consisting of 140 amino acids; histidine tag (LEHHHHHH) (C); made in house
Protocol: as §1
In the Examples, the slightly modified derivatives of α-synuclein (Syn) were used as a substrate to obtain α-synuclein (Syn) by gene recombination. To facilitate purification by the nickel chelate method, histidine tag (LEHHHHHH) was adhered to C-terminus. To avoid interference in the transcription, leucine instead of methionine was incorporated as the 5th amino acid residue.
Unless the context clearly indicates otherwise, Syn cleavage was initiated by adding Syn to the solution of the cleavage agent. The cleavage yield was calculated according to the following method.
A product solution formed by the cleavage reaction was passed through the membrane with the cut-off MW of 10000 to remove Syn and its assemblies. Then, the cleavage products were separated by HPLC, and the total amount of the cleavage products was estimated. The cleavage product was degraded to amino acids through alkaline hydrolysis. The total amount of the amino acids was then estimated with fluorescamine to quantify the total amount of the cleavage product. The cleavage yield was calculated by comparing the amount of the cleavage product with the initially added amount of Syn.
The cleavage yields measured by incubating Syn (70 μM) with various concentrations of cleavage agent A at pH 7.50 and 37° C. for 3 days are illustrated in FIG. 15. The cleavage yields in the Examples are the mean value measured by using 4˜6 different reaction solutions. Since the MW of Syn used in the Examples is about 15000, some of the protein fragments formed by the cleavage of Syn might have been too large to pass through the membrane with cut-off MW of 10000.

[6] = molecular target: T2, amylin (Am; human islet amyloid polypeptide) (Homo sapiens, UniProt P10997); assay: Cleavage of oligomers of amylin by cleavage agent (MALDI-TOF MS, cleavage yield); conditions: for cleavage of Am (MALDI-TOF mass spectrum of HPLC-purified products) / cleavage products of Am (MALDI-TOF MS): cleavage agent 0.38-7.1 μM (figure legends), pH 7.50, 36 hours
T2 construct: Am is a cyclic oligopeptide consisting of 37 amino acid residues
T2 sequence (P10997 34-70 limits assumed): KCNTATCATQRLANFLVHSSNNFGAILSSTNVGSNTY
Protocol: as §1
MALDI-TOF mass spectrum of the products purified with HPLC after incubating Am (4.0 μM) with cleavage agent A is illustrated in FIG. 12. In this Example and hereafter, MALDI-TOF mass spectra of cleavage products for Am were taken after purification with HPLC by the method described below.
Unless specifically described in the Examples, cleavage reaction of Am was initiated by adding Am to the solution containing the cleavage agent, and the cleavage yield was estimated through the following process. The product solution obtained from the cleavage reaction was passed through the membrane (cut-off MW=10000) to remove Am aggregates, and then the cleavage product was separated by HPLC. The total amount of the cleavage product was quantified. The cleavage product was converted to amino acids by alkaline hydrolysis, and the total amount of amino acids was estimated by using fluorescamine to determine the amount of the cleavage product. The cleavage yield was calculated by comparing the amount of cleavage product with that of the initial amount of Am.
The cleavage yields measured after reacting Am (4.0 μM) with various concentrations of cleavage agent A at 37° C. and pH 7.50 for 36 hours are illustrated in FIG. 13. The cleavage yields of Am in the Examples are the mean value measured by using 4[…]6 different reaction mixtures. The relative standard deviation of each cleavage yield is 5-15%.

[7] = Aβ40 4.0 μM, cleavage agent 3.0 μM, 37° C.
[8] = Aβ40 4.0 μM, cleavage agent 3.0 μM, 36 hours, 37° C., pH 7.50
[9] = concluded from preincubation and filtration experiments
[10] = Aβ42 4.0 μM, cleavage agent 3.0 μM, 36 hours, 37° C., pH 7.50
[11] = Aβ42 4.0 μM, pH 7.50, 37° C., 36 hours
[12] = Am 4.0 μM, cleavage agent 1.0 μM, 36 hours, 37° C., pH 7.50

## CCCCNc1nc(NCCCN2CCNCCNCCNCC2)nc(NCc2ccc(-c3nc4ccccc4o3)cc2)n1.O.O.[Co+3] [cleavage agent A]
[1]; [7]
  cleavage of Aβ40 (MALDI-TOF mass spectrum): cleaved
[1]; [8]
  cleavage of Aβ40 after preincubation of Aβ40 for 24 hours: considerable peptide cleavage
  effect of preincubation of Aβ40 for periods longer than 24 hours on cleavage yield: reduces the cleavage yield
  yield for cleavage of Aβ40 after preincubation for 3-18 hours: does not decrease considerably
[1]; [9]
  assembly species of Aβ40 cleaved (selectivity): protofibrils or fibrils of Aβ40 are not cleaved
[2]
  cleavage of non-amyloidogenic control proteins: cleavage reaction was not detected
[3]
  cleavage of two kinds of scrambled Aβ42 (control): not cleaved
[4]; [10]
  cleavage of Aβ42 after preincubation of Aβ42 for 24 hours: little cleavage was observed
  cleavage yield after preincubation of Aβ42 for 3-6 hours compared with no preincubation: not much smaller
[4]; Aβ42 4.0 μM, 37° C.
  cleavage of Aβ42 (MALDI-TOF mass spectrum): cleaved
[4]; [11]
  concentration of cleavage agent at which cleavage reaction was detected: 100 nM
  plateau value of the yield for cleavage of Aβ42 at high concentration of the cleavage agent: about 30%
[4]; [9]
  assembly species of Aβ42 cleaved (selectivity): the oligomer is cleaved by the cleavage agent A and not the Aβ42 monomer, protofibril, or fibril
[5]
  cleavage yields of Syn: fairly large
[6]; Am 4.0 μM, 37° C.
  cleavage of Am (MALDI-TOF mass spectrum of HPLC-purified products): cleaved
  cleavage products of Am (MALDI-TOF MS): Am20-37 and Am19-37

## CC(Nc1nc(NCc2ccc(Cl)cc2)nc(OCCN(C)c2ccc(-c3nc4ccccc4s3)cc2)n1)C(=O)NCCCN1CCNCCNCCNCC1.O.O.[Co+3] (centres unmarked) [cleavage agent B]
[1]; [7]
  cleavage of Aβ40 (MALDI-TOF mass spectrum): cleaved
[1]; Aβ40 4.0 μM, pH 7.50, 37° C., 36 hours
  plateau value of the yield for cleavage of Aβ40 at high concentration of the cleavage agent: about 12%
[2]
  cleavage of non-amyloidogenic control proteins: the same as those obtained in Example 1
[3]
  cleavage of two kinds of scrambled Aβ42 (control): the same as those obtained in Example 1
[4]; Aβ42 4.0 μM, 37° C.
  cleavage of Aβ42 (MALDI-TOF mass spectrum): cleaved
[4]; [11]
  concentration of cleavage agent at which cleavage reaction was detected: 30 to 50 nM
  plateau value of the yield for cleavage of Aβ42 at high concentration of the cleavage agent: ~17%
[5]
  cleavage yields of Syn: fairly large
[6]; Am 4.0 μM, cleavage agent 1.0 μM, 37° C., pH 7.50
  cleavage yield against reaction time: does not increase even if the reaction period is increase beyond 36 hours
[6]; [12]
  amounts of cleavage products after preincubation of Am for 6 hours compared with no preincubation: not much smaller
  cleavage of Am after preincubation of Am for 36 hours or longer: little cleavage reaction occurred
[6]; Am 4.0 μM, 37° C.
  cleavage of Am (MALDI-TOF mass spectrum of HPLC-purified products): cleaved
  cleavage products of Am (MALDI-TOF MS): Am20-37, Am19-37 and Am17-37
[6]; [9]
  assembly species of Am cleaved (selectivity): oligomers of Am instead of the monomer, protofibrils, and fibrils of Am are cleaved

## Cc1ccccc1CNc1nc(NCCC(=O)NCCCN2CCNCCNCCNCC2)nc(OCCN(C)c2ccc(-c3nc4ccccc4s3)cc2)n1.O.O.[Co+3] [cleavage agent D]
[1]; Aβ40 4.0 μM, cleavage agent 0.1-10 μM, pH 7.50, 37° C., 36 hours
  cleavage of Aβ40 (MALDI-TOF MS data): did not reveal any evidence of cleavage
[2]
  cleavage of non-amyloidogenic control proteins: the same as those obtained in Example 1
[3]
  cleavage of two kinds of scrambled Aβ42 (control): the same as those obtained in Example 1
[4]; Aβ42 4.0 μM, 37° C.
  cleavage of Aβ42 (MALDI-TOF mass spectrum): cleaved
[4]; [11]
  concentration of cleavage agent at which cleavage reaction was detected: 50 to 100 nM
  plateau value of the yield for cleavage of Aβ42 at high concentration of the cleavage agent: about 12%
[6]; Am 4.0 μM, 37° C.
  cleavage of Am (MALDI-TOF mass spectrum of HPLC-purified products): cleaved
  cleavage products of Am (MALDI-TOF MS): Am20-37 and Am19-37

## CCCCNc1nc(NCCCN2CCNCCNCCNCC2)nc(OCCN(C)c2ccc(-c3nc4ccccc4s3)cc2)n1.O.O.[Co+3] [cleavage agent E]
[2]
  cleavage of non-amyloidogenic control proteins: the same as those obtained in Example 1
[3]
  cleavage of two kinds of scrambled Aβ42 (control): the same as those obtained in Example 1
[6]; Am 4.0 μM, 37° C.
  cleavage of Am (MALDI-TOF mass spectrum of HPLC-purified products): cleaved
  cleavage products of Am (MALDI-TOF MS): Am17-37, Am16-37 and Am13-37

## CC(C)CC(Nc1nc(OCCN(C)c2ccc(-c3nc4ccccc4s3)cc2)nc(N2CCCCC2)n1)C(=O)NCCCN1CCNCCNCCNCC1.O.O.[Co+3] (centres unmarked) [cleavage agent F]
[2]
  cleavage of non-amyloidogenic control proteins: the same as those obtained in Example 1
[3]
  cleavage of two kinds of scrambled Aβ42 (control): the same as those obtained in Example 1
[6]; Am 4.0 μM, 37° C.
  cleavage of Am (MALDI-TOF mass spectrum of HPLC-purified products): cleaved
  cleavage products of Am (MALDI-TOF MS): Am19-37 and Am17-37; also recorded: Am20-37, Am17-37 and Am14-37

## Co^III complex of cyclen [reference compound]
[1]; complex 20 μM, Aβ40 4.0 μM, pH 7.50, 37° C., 36 hours
  cleavage of Aβ40 by complex lacking the recognition site: No peptide cleavage was observed
[4]; complex 20 μM, Aβ42 4.0 μM, pH 7.50, 37° C., 36 hours
  cleavage of Aβ42 by complex lacking the recognition site: No peptide cleavage was observed
[5]; complex 20 μM, 36 hours
  cleavage of Syn by complex lacking the recognition site: No peptide cleavage was observed
[6]; complex 20 μM, Am 4.0 μM, pH 7.50, 37° C., 36 hours
  cleavage of Am by complex lacking the recognition site: No peptide cleavage was observed
